Data: the supplement of paper PMC10307832

Key:
Test in all cases: relative viability (nuclei count vs DMSO), 5 days (fraction); higher = more cells survive
Everolimus + Phenformin = compound: CO[C@H]1C[C@@H]2CC[C@@H](C)[C@@](O)(O2)C(=O)C(=O)N2CCCC[C@H]2C(=O)O[C@H]([C@H](C)C[C@@H]2CC[C@@H](OCCO)[C@H](OC)C2)CC(=O)[C@H](C)/C=C(\C)[C@@H](O)[C@@H](OC)C(=O)[C@H](C)C[C@H](C)/C=C/C=C/C=C/1C [Everolimus] + N=C(N)NC(=N)NCCc1ccccc1 [Phenformin] (partner 250 µM)
Method in brief: (§1)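 Values are medians from duplicate plates. Each reflects relative viability, defined as the nuclei count of treated wells over that of vehicle wells. Lung cancer cell lines in 1536-well plates were pin-tool dosed one day after seeding with one drug alone or with a fixed anchor-drug dose plus five library-drug doses (not always all listed) in √10 steps, then fixed, stained and imaged at 4× after 5 days.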

Everolimus + Olaparib = compound: CO[C@H]1C[C@@H]2CC[C@@H](C)[C@@](O)(O2)C(=O)C(=O)N2CCCC[C@H]2C(=O)O[C@H]([C@H](C)C[C@@H]2CC[C@@H](OCCO)[C@H](OC)C2)CC(=O)[C@H](C)/C=C(\C)[C@@H](O)[C@@H](OC)C(=O)[C@H](C)C[C@H](C)/C=C/C=C/C=C/1C [Everolimus] + O=C(c1cc(Cc2n[nH]c(=O)c3ccccc23)ccc1F)N1CCN(C(=O)C2CC2)CC1 [Olaparib] (partner 8 µM)
Method in brief: as §1

Everolimus + Trametinib = compound: CO[C@H]1C[C@@H]2CC[C@@H](C)[C@@](O)(O2)C(=O)C(=O)N2CCCC[C@H]2C(=O)O[C@H]([C@H](C)C[C@@H]2CC[C@@H](OCCO)[C@H](OC)C2)CC(=O)[C@H](C)/C=C(\C)[C@@H](O)[C@@H](OC)C(=O)[C@H](C)C[C@H](C)/C=C/C=C/C=C/1C [Everolimus] + CC(=O)Nc1cccc(-n2c(=O)n(C3CC3)c(=O)c3c(Nc4ccc(I)cc4F)n(C)c(=O)c(C)c32)c1 [Trametinib] (partner 0.02 µM)
Method in brief: as §1

Everolimus = compound: CO[C@H]1C[C@@H]2CC[C@@H](C)[C@@](O)(O2)C(=O)C(=O)N2CCCC[C@H]2C(=O)O[C@H]([C@H](C)C[C@@H]2CC[C@@H](OCCO)[C@H](OC)C2)CC(=O)[C@H](C)/C=C(\C)[C@@H](O)[C@@H](OC)C(=O)[C@H](C)C[C@H](C)/C=C/C=C/C=C/1C [Everolimus]
Method in brief: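 Five library-drug doses spaced by √10 were pinned onto vehicle-anchored 1536-well plates of lung cancer cell lines that had been kept overnight at 37 °C. Cells went 5 days without medium change, then were fixed, permeabilised and Hoechst-stained together, imaged at 4× and counted by MetaXpress. Viability is the ratio of treated-well to vehicle-well nuclei, taken as a median over plates. Plates required control CV below 25% and at least one doubling.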

Row | Cell Line | relative viability (Everolimus + Phenformin; first compound 0.01 µM) | relative viability (Everolimus + Phenformin; first compound 0.03162 µM) | relative viability (Everolimus + Phenformin; first compound 0.1 µM) | relative viability (Everolimus + Phenformin; first compound 0.3162 µM) | relative viability (Everolimus + Phenformin; first compound 1 µM) | relative viability (Everolimus + Olaparib; first compound 0.01 µM) | relative viability (Everolimus + Olaparib; first compound 0.03162 µM) | relative viability (Everolimus + Olaparib; first compound 0.1 µM) | relative viability (Everolimus + Olaparib; first compound 0.3162 µM) | relative viability (Everolimus + Olaparib; first compound 1 µM) | relative viability (Everolimus + Trametinib; first compound 0.01 µM) | relative viability (Everolimus + Trametinib; first compound 0.03162 µM) | relative viability (Everolimus + Trametinib; first compound 0.1 µM) | relative viability (Everolimus + Trametinib; first compound 0.3162 µM) | relative viability (Everolimus + Trametinib; first compound 1 µM) | relative viability (Everolimus; 0.01 µM) | relative viability (Everolimus; 0.03162 µM) | relative viability (Everolimus; 0.1 µM) | relative viability (Everolimus; 0.3162 µM) | relative viability (Everolimus; 1 µM)
1 | NCI-H647 | 0.317 | 0.395 | 0.338 | 0.36 | 0.537 | 0.268 | 0.303 | 0.199 | 0.176 | 0.368 | 0.258 | 0.318 | 0.288 | 0.252 | 0.293 | 0.644 | 0.521 | 0.539 | 0.535 | 0.65
2 | A-427 | 0.281 | 0.357 | 0.278 | 0.254 | 0.289 | 0.576 | 0.723 | 0.635 | 0.656 | 0.691 | 0.472 | 0.482 | 0.472 | 0.556 | 0.574 | 0.803 | 0.772 | 0.693 | 0.808 | 0.799
3 | COR-L 105 | 0.356 | 0.387 | 0.388 | 0.435 | 0.361 | 0.649 | 0.627 | 0.497 | 0.581 | 0.516 | 0.424 | 0.389 | 0.378 | 0.455 | 0.424 | 0.667 | 0.682 | 0.592 | 0.552 | 0.663
4 | NCI-H441 | 0.798 | 0.605 | 0.585 | 0.772 | 0.666 | 0.517 | 0.598 | 0.489 | 0.657 | 0.484 | 0.373 | 0.306 | 0.327 | 0.357 | 0.29 | 0.898 | 0.961 | 0.907 | 0.984 | 0.952
5 | NCI-H2126 | 0.485 | 0.45 | 0.41 | 0.48 | 0.455 | 0.714 | 0.583 | 0.502 | 0.602 | 0.603 | 0.39 | 0.362 | 0.371 | 0.343 | 0.383 | 0.681 | 0.615 | 0.617 | 0.606 | 0.594
6 | HCC-44 | 0.195 | 0.125 | 0.127 | 0.178 | 0.168 | 1 | 1.17 | 1.07 | 1.06 | 1.03 | 1.13 | 1.08 | 0.982 | 1.04 | 0.901 | 1 | 0.974 | 0.985 | 0.969 | 0.957
7 | NCI-H460 | 0.492 | 0.57 | 0.588 | 0.538 | 0.315 | 0.44 | 0.407 | 0.4 | 0.403 | 0.422 | 0.082 | 0.101 | 0.114 | 0.0573 | 0.124 | 0.951 | 1.03 | 0.957 | 0.921 | 0.939
8 | SK-LU-1 | 0.306 | 0.323 | 0.291 | 0.369 | 0.342 | 0.423 | 0.378 | 0.301 | 0.389 | 0.362 | 0.39 | 0.355 | 0.298 | 0.345 | 0.317 | 0.652 | 0.583 | 0.593 | 0.591 | 0.639
9 | SW 900 | 0.43 | 0.492 | 0.371 | 0.324 | 0.45 | 0.801 | 0.744 | 0.814 | 0.656 | 0.649 | 0.604 | 0.733 | 0.536 | 0.717 | 0.432 | 0.578 | 0.498 | 0.545 | 0.57 | 0.512
10 | NCI-H322M | 0.647 | 0.658 | 0.629 | 0.714 | 0.701 | 0.723 | 0.686 | 0.742 | 0.704 | 0.73 | 0.474 | 0.504 | 0.495 | 0.463 | 0.484 | 0.688 | 0.728 | 0.733 | 0.694 | 0.722
11 | EKVX | 0.242 | 0.22 | 0.22 | 0.222 | 0.25 |  | 0.493 | 0.494 | 0.561 | 0.558 |  | 0.294 | 0.257 | 0.268 | 0.382 | 0.628 | 0.687 | 0.544 | 0.541 | 0.573
12 | NCI-H1734 | 0.306 | 0.324 | 0.249 | 0.31 | 0.35 | 0.448 | 0.409 | 0.456 | 0.406 | 0.407 | 0.502 | 0.473 | 0.404 | 0.453 | 0.46 | 0.648 | 0.692 | 0.602 | 0.615 | 0.742
13 | NCI-H522 | 0.588 | 0.527 | 0.549 | 0.51 | 0.503 | 0.609 | 0.474 | 0.429 | 0.448 | 0.438 | 0.634 | 0.55 | 0.527 | 0.456 | 0.635 | 0.722 | 0.655 | 0.601 | 0.731 | 0.813
14 | NCI-H520 | 0.242 | 0.255 | 0.242 | 0.207 | 0.244 | 0.29 | 0.209 | 0.296 | 0.18 | 0.312 | 0.292 | 0.286 | 0.245 | 0.249 | 0.256 | 0.436 | 0.413 | 0.401 | 0.326 | 0.371
